Values of other authors, collected in patent publication US6476058B2 (Isotechnika, Inc., priority 1998, dated 2002).

How the values were obtained:
[1] = in vivo
[2] = tested on: patients with chronic stable angina
human = details: racemic mixture administered to a human

- serum calcium concentration [1]: not affected
- metabolites excreted in the urine (in vivo): 60%
- parent compound excreted in the urine (in vivo): 10%
- bioavailability in the presence of food (oral, food): not altered
- influence of renal impairment on pharmacokinetics (renal impairment): not significantly influenced
SMILES: CCOC(=O)C1=C(COCCN)NC(C)=C(C(=O)OC)C1c1ccccc1Cl (racemic) [amlodipine, (R.S.) 3-ethyl-5-1-methyl-2-(2-aminoethoxymethyl)-4-(2-chlorophenyl)-1,4-dihydro-6-methyl-3,5-pyridinedicarboxylate]
- reduction in blood pressures [2]: 4/1
- adverse effects (human): headache and edema, dizziness, flushing, palpitation, fatigue, nausea, abdominal pain and somnolence
